# Data: patent US4181802A, “1-(Heterocyclylalkyl)-1,3-dihydro-2-H-benzimidazole-2-ones” (Janssen Pharmaceutica N.V., priority 1978, dated 1980)
# Like-named read-outs stand apart in the source and are kept apart here.
# Key:
# Format in all cases: cell-based
# [1] = target: T1, β-adrenergic receptor (β1), guinea-pig right atrium (Cavia porcellus, UniProt H0W3H1); assay: Guinea-pig right atrium (β1): inhibition of isoprenaline-induced increase in heart rate; settings: isolated guinea-pig right atrium, drug incubation 30 min, 37.5° C.
# T1 construct: Spontaneously beating right atria are dissected from guinea-pigs; from tissue; host or cells: guinea-pig right atrium (strip with sinoatrial node)
# Description: 1. GUINEA-PIG RIGHT ATRIUM (β1)
# Spontaneously beating right atria are dissected from guinea-pigs (400±50 g). A triangular strip of atrium, including the sinoatrial node is excised together with the anterior vena cava.
# The vena is fixed to a glass muscle holder and the opposite atrial muscle is connected to a Grass isometric transducer. Atria are suspended at optimal preload in a 100 ml Krebs-Henseleit solution, containing 2 g/l glucose, at 37.5° C. and aerated with 95% O2 and 5% CO2.
# Heart rate and contractile force are recorded by means of a Grass FTO3C isometric transducer. Output signals amplified by an isometric transducer amplifier (J.S.I.) via a cardiotachometer (J.S.I.) are recorded on a Honeywell XYY' recorder. […] This produces a dose related increase in heart rate (a). After washing out isoprenaline a stabilization period of 15 min. is allowed. A drug is then added to the bath fluid for 30 min. During this incubation period possible direct chronotropic and inotropic effects of the drug are determined. Following this, a second dose-response curve for isoprenaline is produced by infusion during 10 minutes (b). The slope of the increase in rate is graphically estimated for each period of isoprenaline addition and the ratio b/a is calculated. Based on solvent experiments a ratio of less than 0.70 is considered as the criterion of inhibitory activity. ED50 -values are estimated graphically.
# [2] = target: T2, β-adrenergic receptor (β2), guinea-pig tracheal ring (Cavia porcellus, UniProt Q8K4Z4); assay: Guinea-pig tracheal ring (β2): inhibition of isoprenaline-induced relaxation; settings: guinea-pig tracheal ring, methacholine 1 μg/ml, isoprenaline 0.08 μg/ml, 35° C., read-out: β2 = ED50 tracheal ring (converted)
# T2 construct: The trachea is dissected from guinea-pigs; from tissue; host or cells: guinea-pig tracheal smooth muscle (rings)
# Source text: (§1) 2. GUINEA-PIG TRACHEAL RING (β2)
# (§2) The trachea is dissected from guinea-pigs (400±50 g). Four rings, approximately 8 mm in width, are then cut from each trachea. Cartilaginous parts of the tracheal ring are mounted horizontally between two metal rods, one of which is attached to a glass organholder, the other rod being connected to a Grass isometric transducer. Using such a technique the tracheal smooth muscle is suspended optimally i.e. midway between the cartilaginous parts. the prepared rings are suspended in a 100 ml organ chamber filled with Tyrode solution, maintained at 35° C. and aerated with 95% O2 and 5% CO2. The preparation is maintained at tension of 1.5 g throughout the experiment. Tension changes recorded are thus an expression of contraction or relaxation. After a stabilization period of 30 min contraction is induced by adding methacholine (1 μg/ml) to the bath for a 10 min period. Addition of isoprenaline (0.08 μg/ml) for 4 min. in the presence of methacholine induces a relaxation of the tracheal ring. This procedure is repeated twice before adding the drug (t-33'; t-19') and once 30 min after addition of the drug. During the incubation period any direct effects of the drug are measured. A 50% inhibition of the agonist-induced response is used as the criterion of effectiveness and ED50 values (with fiducial limits) are determined by probit analysis.
# (§3) The ratio of the ED50 -values obtained in respectively the tracheal ring test (β2) and in the right atrium test (β1) may be considered as an index of the cardioselectivity of the test drug.
# [3] = system: β-adrenergic receptor (β2), guinea-pig tracheal ring; assay: as above; settings: ratio of ED50 tracheal ring / ED50 right atrium; for β2/β1 (ratio of the ED50 values, tracheal ring to right atrium; index of cardioselectivity): Table I
# Source text: as §1, §2, §3
# [4] = Table I, ED50 estimated graphically
# [5] = Table I, 30 min after drug, probit analysis
# T2 sequence (Q8K4Z4 whole entry): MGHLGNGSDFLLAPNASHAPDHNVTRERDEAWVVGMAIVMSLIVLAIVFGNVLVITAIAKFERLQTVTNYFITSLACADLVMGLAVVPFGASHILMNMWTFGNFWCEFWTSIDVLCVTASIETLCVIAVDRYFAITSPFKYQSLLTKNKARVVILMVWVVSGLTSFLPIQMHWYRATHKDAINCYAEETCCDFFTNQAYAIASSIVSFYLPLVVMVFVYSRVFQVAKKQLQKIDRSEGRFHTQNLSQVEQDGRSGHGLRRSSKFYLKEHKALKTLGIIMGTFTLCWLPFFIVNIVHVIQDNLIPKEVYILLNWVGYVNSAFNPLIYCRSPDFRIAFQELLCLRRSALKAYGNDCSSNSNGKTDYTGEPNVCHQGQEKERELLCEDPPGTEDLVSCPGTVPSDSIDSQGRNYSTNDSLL
# T1 sequence (H0W3H1 1-470): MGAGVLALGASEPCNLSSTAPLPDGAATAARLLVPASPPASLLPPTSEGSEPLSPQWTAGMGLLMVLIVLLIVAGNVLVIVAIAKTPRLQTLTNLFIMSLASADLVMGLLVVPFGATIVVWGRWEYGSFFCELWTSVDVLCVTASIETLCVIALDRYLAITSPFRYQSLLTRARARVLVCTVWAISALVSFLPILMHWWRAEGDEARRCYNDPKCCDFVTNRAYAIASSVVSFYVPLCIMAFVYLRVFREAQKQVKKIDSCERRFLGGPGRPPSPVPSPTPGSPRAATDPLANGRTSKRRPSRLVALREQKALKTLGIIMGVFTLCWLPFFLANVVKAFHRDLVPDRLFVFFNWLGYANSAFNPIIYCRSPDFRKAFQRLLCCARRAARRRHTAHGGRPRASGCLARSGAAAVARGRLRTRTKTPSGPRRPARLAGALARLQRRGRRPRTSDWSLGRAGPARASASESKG
"IC50 [2, 5]",IC50 ([2]; Table II),Structure (SMILES),"IC50 [1, 4]","β2/β1 (ratio of the ED50 values, tracheal ring to right atrium; index of cardioselectivity) [3]","IC50 ([1]; Table II, read-out: β1 = ED50 right atrium (converted))",β2/β1 (ratio of the ED50 values; index of cardioselectivity) ([3]; Table II)
343 nM,,"O=c1[nH]c2ccc(Cl)cc2n1CC1CCCN(CC(O)COc2cccc3ccccc23)C1 (stereo not drawn) [1-naphthalenyl, 6-Cl]",10.7 nM,32,,
2900 nM,,"O=c1[nH]c2ccccc2n1CC1CCCN(CC(O)COc2cccc3ccccc23)C1 (stereo not drawn) [1-naphthalenyl, H]",23.2 nM,125,,
,48.8 nM,"O=c1[nH]c2ccccc2n1CC1CCCN(CC(O)C2COc3ccccc3O2)C1 (stereo not drawn) [1-{1-[2-(2,3-dihydro-1,4-benzodioxin-2-yl)-2-hydroxyethyl]-3-piperidinylmethyl}-1,3-dihydro-2H-benzimidazol-2-one]",,,12.2 nM,4
48.8 nM,,"Cc1cccc(OCC(O)CN2CCCC(Cn3c(=O)[nH]c4ccccc43)C2)c1C (stereo not drawn) [2,3-(CH3)2C6 H3, H]",6.1 nM,8,,
391 nM,,"CCOc1ccccc1OCC(O)CN1CCCC(Cn2c(=O)[nH]c3ccc(Cl)cc32)C1 (stereo not drawn) [2-(C2 H5 O)C6 H4,6-Cl]",21.7 nM,18,,
23.5 nM,,"CCOc1ccccc1OCC(O)CN1CCCC(Cn2c(=O)[nH]c3ccccc32)C1 (stereo not drawn) [2-(C2 H5 O)C6 H4, H]",5.88 nM,4,,
48.8 nM,,"CCc1ccccc1OCC(O)CN1CCCC(Cn2c(=O)[nH]c3ccccc32)C1 (stereo not drawn) [2-(C2 H5)C6 H4, H]",6.1 nM,8,,
45.7 nM,,"C=CCOc1ccccc1OCC(O)CN1CCCC(Cn2c(=O)[nH]c3ccccc32)C1 (stereo not drawn) [2-(CH2CHCH2 O)C6 H4, H]",2.86 nM,16,,
85.4 nM,,"C=CCc1ccccc1OCC(O)CN1CCCC(Cn2c(=O)[nH]c3ccccc32)C1 (stereo not drawn) [2-(CH2CHCH2)C6 H4, H]",5.93 nM,14,,
2.95 nM,,"CC(=O)c1ccccc1OCC(O)CN1CCCC(Cn2c(=O)[nH]c3ccccc32)C1 (stereo not drawn) [2-(CH3 CO)C6 H4, H]",2.95 nM,1,,
89.7 nM,,"COc1ccccc1OCC(O)CN1CCCC(Cn2c(=O)[nH]c3ccc(Cl)cc32)C1 (stereo not drawn) [2-(CH3 O)C6 H4,6-Cl, 6-chloro-1,3-dihydro-1-{1-[2-hydroxy-3-(2-methoxyphenoxy)propyl]-3-piperidinylmethyl}-2H-benzimidazol-2-one]",1.41 nM,63,,
12.2 nM,,"COc1ccccc1OCC(O)CN1CCCC(Cn2c(=O)[nH]c3ccccc32)C1 (stereo not drawn) [2-(CH3 O)C6 H4, H, 1,3-dihydro-1-{1-[2-hydroxy-3-(2-methoxyphenoxy)propyl]-3-piperidinylmethyl}-2H-benzimidazol-2-one]",2.43 nM,5,,
91 nM,,"CC(C)Oc1ccccc1OCC(O)CN1CCCC(Cn2c(=O)[nH]c3ccccc32)C1 (stereo not drawn) [2-(iC3 H7 O)C6 H4, H]",11.4 nM,8,,
22.8 nM,,"CCCOc1ccccc1OCC(O)CN1CCCC(Cn2c(=O)[nH]c3ccccc32)C1 (stereo not drawn) [2-(nC3 H7 O)C6 H4, H]",5.69 nM,4,,
119 nM,,"O=c1[nH]c2ccccc2n1CC1CCCN(CC(O)COc2ccccc2Br)C1 (stereo not drawn) [2-BrC6 H4, H]",5.43 nM,22,,
181 nM,,"N#Cc1ccccc1OCC(O)CN1CCCC(Cn2c(=O)[nH]c3ccc(Cl)cc32)C1 (stereo not drawn) [2-CNC6 H4,6-Cl]",11.3 nM,16,,
12.3 nM,,"N#Cc1ccccc1OCC(O)CN1CCCC(Cn2c(=O)[nH]c3ccccc32)C1 (stereo not drawn) [2-CNC6 H4, H]",6.15 nM,2,,

"IC50 [2, 5]",IC50 ([2]; Table II),Structure (SMILES),"IC50 [1, 4]","β2/β1 (ratio of the ED50 values, tracheal ring to right atrium; index of cardioselectivity) [3]","IC50 ([1]; Table II, read-out: β1 = ED50 right atrium (converted))",β2/β1 (ratio of the ED50 values; index of cardioselectivity) ([3]; Table II)
2820 nM,,"Cc1cc(OCC(O)CN2CCCC(Cn3c(=O)[nH]c4ccccc43)C2)cc(C)c1Cl (stereo not drawn) [3,5-(CH3)2-4-ClC6 H2, H]",5.63 nM,500,,
50.6 nM,,"Cc1cccc(OCC(O)CN2CCCC(Cn3c(=O)[nH]c4ccccc43)C2)c1 (stereo not drawn) [3-(CH3)C6 H4, H]",6.32 nM,8,,
47.2 nM,,"CC(=O)c1ccc(OCC(O)CN2CCCC(Cn3c(=O)[nH]c4ccccc43)C2)cc1 (stereo not drawn) [4-(CH3 CO)C6 H4, H]",5.9 nM,8,,
410 nM,,"CC(=O)Nc1ccc(OCC(O)CN2CCCC(Cn3c(=O)[nH]c4ccccc43)C2)cc1 (stereo not drawn) [4-(CH3 CONH)C6 H4, H]",5.7 nM,72,,
48.6 nM,,"COc1ccc(OCC(O)CN2CCCC(Cn3c(=O)[nH]c4ccccc43)C2)cc1 (stereo not drawn) [4-(CH3 O)C6 H4, H]",24.3 nM,2,,
46.8 nM,,"CSc1ccc(OCC(O)CN2CCCC(Cn3c(=O)[nH]c4ccccc43)C2)cc1 (stereo not drawn) [4-(CH3 S)C6 H4, H]",1.47 nM,32,,
1430 nM,,"CCCc1ccc(OCC(O)CN2CCCC(Cn3c(=O)[nH]c4cc(F)ccc43)C2)cc1 (stereo not drawn) [4-(nC3 H7)C6 H4,5-F]",22.6 nM,63,,
161 nM,,"CCCCNC(=O)Nc1ccc(OCC(O)CN2CCCC(Cn3c(=O)[nH]c4ccccc43)C2)cc1 (stereo not drawn) [4-(nC4 H9NHCONH)C6 H4, H]",20.2 nM,8,,
2720 nM,,"O=c1[nH]c2ccccc2n1CC1CCCN(CC(O)COc2ccc(Br)cc2)C1 (stereo not drawn) [4-BrC6 H4, H]",10.9 nM,250,,
769 nM,,"O=c1[nH]c2ccccc2n1CC1CCCN(CC(O)COc2ccc(Cl)cc2)C1 (stereo not drawn) [4-ClC6 H4, H]",48.1 nM,16,,
714 nM,,"O=c1[nH]c2cc(Cl)ccc2n1CC1CCCN(CC(O)COc2ccc(F)cc2)C1 (stereo not drawn) [4-FC6 H4,5-Cl]",11.5 nM,62,,
184 nM,,"O=c1[nH]c2ccc(Cl)cc2n1CC1CCCN(CC(O)COc2ccc(F)cc2)C1 (stereo not drawn) [4-FC6 H4,6-Cl]",11.5 nM,16,,
25 nM,,"O=c1[nH]c2ccccc2n1CC1CCCN(CC(O)COc2ccc(F)cc2)C1 (stereo not drawn) [4-FC6 H4, H]",3.13 nM,8,,
192 nM,,"O=c1[nH]c2cc(Cl)ccc2n1CC1CCCN(CC(O)COc2ccccc2)C1 (stereo not drawn) [C6 H5,5-Cl]",12 nM,16,,
12.5 nM,,"O=c1[nH]c2cc(F)ccc2n1CC1CCCN(CC(O)COc2ccccc2)C1 (stereo not drawn) [C6 H5,5-F]",3.13 nM,4,,
23.3 nM,,"O=c1[nH]c2ccccc2n1CC1CCCN(CC(O)COc2ccccc2)C1 (stereo not drawn) [C6 H5, H]",1.65 nM,15,,
